Results as given in patent publication US8853230B2, “Inhibitors of JAK” (Portola Pharmaceuticals, Inc., priority 2009, dated 2014).

What was measured:
Assay type in all cases: biochemical
JAK1 = biological target: T1, JAK1 (Homo sapiens, UniProt P23458); test: Z'-LYTE kinase assay, JAK1 tyrosine phosphorylation activity; details: read-out: JAK 1 IC50
T1 construct: 5 μl of catalytic domain recombinant Kinase enzyme+Tyr peptide substrate (Invitrogen, Calif.); purchased Invitrogen
How it was run: (§1)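 Catalytic-domain recombinant enzymes phosphorylate a coumarin/fluorescein-labelled Tyr6 peptide for 1 h at room temperature in the presence of ATP and compound (1% DMSO). Development Reagent then cleaves non-phosphorylated peptide over 1 h, and emission ratio 445/520 nm (ex 400 nm) gives percent phosphorylation; IC50 by 4-parameter logistic model.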

JAK2 = biological target: T2, JAK2 (Homo sapiens, UniProt O60674); test: Z'-LYTE kinase assay, JAK2 tyrosine phosphorylation activity
T2 construct: 5 μl of catalytic domain recombinant Kinase enzyme+Tyr peptide substrate (Invitrogen, Calif.); purchased Invitrogen
T2 sequence (O60674 849-1124 limits assumed): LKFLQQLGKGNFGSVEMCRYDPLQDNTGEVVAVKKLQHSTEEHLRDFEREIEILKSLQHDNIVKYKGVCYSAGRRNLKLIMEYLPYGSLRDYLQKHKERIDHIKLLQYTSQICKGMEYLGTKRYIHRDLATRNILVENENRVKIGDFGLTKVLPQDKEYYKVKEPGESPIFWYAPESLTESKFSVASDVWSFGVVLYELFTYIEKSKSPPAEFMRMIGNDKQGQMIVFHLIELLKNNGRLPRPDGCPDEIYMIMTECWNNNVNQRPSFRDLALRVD
How it was run: as §1

JAK3 = biological target: T3, JAK3 (Homo sapiens, UniProt P52333); test: Z'-LYTE kinase assay, JAK3 tyrosine phosphorylation activity
T3 construct: 5 μl of catalytic domain recombinant Kinase enzyme+Tyr peptide substrate (Invitrogen, Calif.); purchased Invitrogen
T3 sequence (P52333 822-1111 limits assumed): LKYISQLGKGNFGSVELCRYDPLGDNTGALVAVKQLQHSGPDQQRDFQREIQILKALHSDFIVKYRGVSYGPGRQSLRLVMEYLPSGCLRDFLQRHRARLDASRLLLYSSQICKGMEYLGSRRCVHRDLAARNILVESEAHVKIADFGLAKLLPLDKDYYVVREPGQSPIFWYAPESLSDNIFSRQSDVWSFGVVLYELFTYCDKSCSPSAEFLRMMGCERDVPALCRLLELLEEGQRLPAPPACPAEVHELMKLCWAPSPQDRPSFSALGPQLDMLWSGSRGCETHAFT
How it was run: as §1

TYK2 = biological target: T4, TYK2 (Homo sapiens, UniProt P29597); test: Z'-LYTE kinase assay, TYK2 tyrosine phosphorylation activity
T4 construct: 5 μl of catalytic domain recombinant Kinase enzyme+Tyr peptide substrate (Invitrogen, Calif.); purchased Invitrogen
T4 sequence (P29597 897-1176 limits assumed): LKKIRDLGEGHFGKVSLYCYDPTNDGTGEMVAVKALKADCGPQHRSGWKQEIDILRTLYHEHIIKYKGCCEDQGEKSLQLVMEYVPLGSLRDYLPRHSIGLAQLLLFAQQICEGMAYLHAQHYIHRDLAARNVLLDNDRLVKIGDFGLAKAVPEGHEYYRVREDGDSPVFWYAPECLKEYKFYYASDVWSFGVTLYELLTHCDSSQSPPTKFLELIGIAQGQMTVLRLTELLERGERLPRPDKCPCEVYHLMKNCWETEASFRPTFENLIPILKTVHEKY
How it was run: as §1

Syk = Syk (Homo sapiens, UniProt P43405); test: Syk IC50 (Table 1; method not given)

T1 sequence (P23458 875-1153 limits assumed): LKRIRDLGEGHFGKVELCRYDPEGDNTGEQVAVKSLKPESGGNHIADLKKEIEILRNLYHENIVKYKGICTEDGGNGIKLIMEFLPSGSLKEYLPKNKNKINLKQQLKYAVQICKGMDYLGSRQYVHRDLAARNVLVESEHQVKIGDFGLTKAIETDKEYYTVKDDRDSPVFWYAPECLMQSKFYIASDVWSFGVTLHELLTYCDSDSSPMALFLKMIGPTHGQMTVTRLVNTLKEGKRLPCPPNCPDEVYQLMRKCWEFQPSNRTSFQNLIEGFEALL

SMILES	IC50 (JAK1)	IC50 (JAK2)	IC50 (JAK3)	IC50 (TYK2)	IC50 (Syk)
COCC(=O)N(C)c1cccc(Nc2ncc(C(N)=O)c(NC(C)C)n2)c1 [Example 88, 4-(isopropylamino)-2-(3-(2-methoxy-N-methylacetamido)phenylamino)pyrimidine-5-carboxamide]	0.01 to 0.1 µM	0.01 to 0.1 µM	0.01 to 0.1 µM	0.01 to 0.1 µM	> 1 µM
CC(=O)Nc1cccc(Nc2ncc(C(N)=O)c(NCCC(N)=O)n2)c1 [Example 61, 2-(3-acetamidophenylamino)-4-(3-amino-3-oxopropylamino)pyrimidine-5-carboxamide]	0.01 to 0.1 µM	0.1 to 1 µM	0.01 to 0.1 µM	–	> 1 µM
COCC(=O)Nc1cccc(Nc2ncc(C(N)=O)c(NC3CCCC3)n2)c1 [Example 22, 4-(cyclopentylamino)-2-(3-(2-methoxyacetamido)phenylamino)pyrimidine-5-carboxamide]	0.01 to 0.1 µM	0.01 to 0.1 µM	0.001 to 0.01 µM	–	0.1 to 1 µM
NC(=O)c1cnc(Nc2ccc(F)c(NC(=O)N3CCC3)c2)cc1NCc1cccc(F)c1 [Example 305, 6-(3-(azetidine-1-carboxamido)-4-fluorophenylamino)-4-(3-fluorobenzylamino)nicotinamide]	0.1 to 1 µM	0.1 to 1 µM	0.001 to 0.01 µM	–	> 1 µM
CC(=O)Nc1cccc(Nc2ncc(C(N)=O)c(N[C@H](C)c3ccccc3)n2)c1 [Example 71, (R)-2-(3-acetamidophenylamino)-4-(1-phenylethylamino)pyrimidine-5-carboxamide]	0.1 to 1 µM	0.01 to 0.1 µM	0.001 to 0.01 µM	–	> 1 µM
COCC(=O)Nc1cccc(Nc2ncc(C(N)=O)c(NCc3ccc(C)cc3)n2)c1 [Example 43, 2-(3-(2-methoxyacetamido)phenylamino)-4-(4-methylbenzylamino)pyrimidine-5-carboxamide]	0.1 to 1 µM	0.1 to 1 µM	0.01 to 0.1 µM	–	> 1 µM
COc1ccc(CNc2nc(Nc3cccc(NC(C)=O)c3)ncc2C(N)=O)cc1 [Example 68, 2-(3-acetamidophenylamino)-4-(4-methoxybenzylamino)pyrimidine-5-carboxamide]	0.1 to 1 µM	0.1 to 1 µM	0.01 to 0.1 µM	–	> 1 µM
CC(=O)Nc1cccc(Nc2ncc(C(N)=O)c(NC[C@@H](O)c3ccccc3)n2)c1 [Example 48, (S)-2-(3-acetamidophenylamino)-4-(2-hydroxy-2-phenylethylamino)pyrimidine-5-carboxamide]	0.1 to 1 µM	0.01 to 0.1 µM	0.001 to 0.01 µM	–	> 1 µM
COCC(=O)Nc1cccc(Nc2ncc(C(N)=O)c(NCc3ccc(Cl)cc3)n2)c1 [Example 45, 4-(4-chlorobenzylamino)-2-(3-(2-methoxyacetamido)phenylamino)pyrimidine-5-carboxamide]	> 1 µM	0.1 to 1 µM	0.1 to 1 µM	–	> 1 µM
CCNC(=O)Nc1cccc(Nc2ncc(C(N)=O)c(NC3CCCC3)n2)c1 [Example 36, 4-(cyclopentylamino)-2-(3-(3-ethylureido)phenylamino)pyrimidine-5-carboxamide]	0.01 to 0.1 µM	0.01 to 0.1 µM	0.001 to 0.01 µM	–	0.1 to 1 µM
CC(=O)Nc1cccc(Nc2ncc(C(N)=O)c(N[C@H]3CCC[C@@H]3O)n2)c1 (relative stereo) [Example 53, 2-(3-acetamidophenylamino)-4-((trans)-2-hydroxycyclopentylamino)pyrimidine-5-carboxamide]	0.01 to 0.1 µM	0.01 to 0.1 µM	0.001 to 0.01 µM	–	0.1 to 1 µM
COC(=O)Nc1cc(Nc2ncc(C(N)=O)c(NCC(F)(F)F)n2)ccc1Cl [Example 18, methyl 5-(5-carbamoyl-4-(2,2,2-trifluoroethylamino)pyrimidin-2-ylamino)-2-chlorophenylcarbamate]	> 1 µM	0.1 to 1 µM	0.01 to 0.1 µM	–	> 1 µM
CC(=O)Nc1cccc(Nc2ncc(C(N)=O)c(NC[C@H](O)c3ccccc3)n2)c1 [Example 49, (R)-2-(3-acetamidophenylamino)-4-(2-hydroxy-2-phenylethylamino)pyrimidine-5-carboxamide]	0.1 to 1 µM	0.01 to 0.1 µM	0.001 to 0.01 µM	–	0.1 to 1 µM
CC(=O)Nc1cccc(Nc2ncc(C(N)=O)c(NCc3ccc(Cl)c(Cl)c3)n2)c1 [Example 70, 2-(3-acetamidophenylamino)-4-(3,4-dichlorobenzylamino)pyrimidine-5-carboxamide]	> 1 µM	0.1 to 1 µM	0.1 to 1 µM	–	> 1 µM
CC(=O)Nc1cccc(Nc2ncc(C(N)=O)c(NC3CC3c3ccccc3)n2)c1 (centres unmarked) [Example 51, 2-(3-acetamidophenylamino)-4-(2-phenylcyclopropylamino)pyrimidine-5-carboxamide]	0.1 to 1 µM	0.01 to 0.1 µM	0.01 to 0.1 µM	–	0.1 to 1 µM

Next, values leading:

IC50 (JAK1)	IC50 (JAK2)	IC50 (JAK3)	IC50 (TYK2)	IC50 (Syk)	SMILES
0.1 to 1 µM	0.1 to 1 µM	0.01 to 0.1 µM	–	> 1 µM	CC(=O)Nc1cccc(Nc2ncc(C(N)=O)c(N[C@@H](C)c3ccccc3)n2)c1 [Example 64, (S)-2-(3-acetamidophenylamino)-4-(1-phenylethylamino)pyrimidine-5-carboxamide]
0.01 to 0.1 µM	0.01 to 0.1 µM	0.001 to 0.01 µM	–	0.1 to 1 µM	CN(C)C(=O)Nc1cccc(Nc2ncc(C(N)=O)c(NC3CCCC3)n2)c1 [Example 35, 4-(cyclopentylamino)-2-(3-(3,3-dimethylureido)phenylamino)pyrimidine-5-carboxamide]
0.01 to 0.1 µM	0.1 to 1 µM	0.01 to 0.1 µM	–	0.1 to 1 µM	COC(=O)Nc1cc(Nc2ncc(C(N)=O)c(NC3CCCC3)n2)ccc1Cl [Example 25, methyl 5-(5-carbamoyl-4-(cyclopentylamino)pyrimidin-2-ylamino)-2-chlorophenylcarbamate]
0.01 to 0.1 µM	0.01 to 0.1 µM	0.001 to 0.01 µM	–	0.1 to 1 µM	NC(=O)c1cnc(Nc2cccc(NC(=O)C3CC3)c2)nc1NC1CCCC1 [Example 19, 4-(cyclopentylamino)-2-(3-(cyclopropanecarboxamido)phenylamino)pyrimidine-5-carboxamide]
> 1 µM	> 1 µM	0.1 to 1 µM	–	> 1 µM	CC(=O)Nc1cccc(Nc2ncc(C(N)=O)c(NCCN3CCCC3)n2)c1 [Example 63, 2-(3-acetamidophenylamino)-4-(2-(pyrrolidin-1-yl)ethylamino)pyrimidine-5-carboxamide]
0.01 to 0.1 µM	0.001 to 0.01 µM	0.001 to 0.01 µM	–	> 1 µM	CC(=O)Nc1cccc(Nc2ncc(C(N)=O)c(NC[C@@H](C)c3ccccc3)n2)c1 [Example 3, (S)-2-(3-acetamidophenylamino)-4-(2-phenylpropylamino)pyrimidine-5-carboxamide]
0.1 to 1 µM	0.1 to 1 µM	0.01 to 0.1 µM	–	> 1 µM	COCC(=O)Nc1cccc(Nc2ncc(C(N)=O)c(NCc3ccc(OC)cc3)n2)c1 [Example 44, 2-(3-(2-methoxyacetamido)phenylamino)-4-(4-methoxybenzylamino)pyrimidine-5-carboxamide]
0.1 to 1 µM	0.1 to 1 µM	0.01 to 0.1 µM	–	> 1 µM	CC(=O)Nc1cccc(Nc2ncc(C(N)=O)c(NCc3ccc(C)cc3)n2)c1 [Example 67, 2-(3-acetamidophenylamino)-4-(4-methylbenzylamino)pyrimidine-5-carboxamide]
0.01 to 0.1 µM	0.01 to 0.1 µM	0.001 to 0.01 µM	–	0.1 to 1 µM	CCC(=O)Nc1cccc(Nc2ncc(C(N)=O)c(NC3CCCC3)n2)c1 [Example 21, 4-(cyclopentylamino)-2-(3-propionamidophenylamino)pyrimidine-5-carboxamide]
0.1 to 1 µM	0.1 to 1 µM	0.1 to 1 µM	–	> 1 µM	COCC(=O)Nc1cccc(Nc2ncc(C(N)=O)c(N[C@@H](C)c3ccccc3)n2)c1 [Example 42, (S)-2-(3-(2-methoxyacetamido)phenylamino)-4-(1-phenylethylamino)pyrimidine-5-carboxamide]
> 1 µM	0.1 to 1 µM	0.1 to 1 µM	–	> 1 µM	CC(=O)Nc1cccc(Nc2ncc(C(N)=O)c(N(C)Cc3ccccc3)n2)c1 [Example 54, 2-(3-acetamidophenylamino)-4-(benzyl(methyl)amino)pyrimidine-5-carboxamide]
0.01 to 0.1 µM	0.1 to 1 µM	0.01 to 0.1 µM	–	> 1 µM	CC(=O)Nc1cccc(Nc2ncc(C(N)=O)c(N[C@@H](CO)CC(C)C)n2)c1 [Example 62, (R)-2-(3-acetamidophenylamino)-4-(1-hydroxy-4-methylpentan-2-ylamino)pyrimidine-5-carboxamide]
0.01 to 0.1 µM	0.01 to 0.1 µM	0.01 to 0.1 µM	–	0.1 to 1 µM	CC(=O)Nc1cccc(Nc2ncc(C(N)=O)c(NCC#N)n2)c1 [Example 74, 2-(3-acetamidophenylamino)-4-(cyanomethylamino)pyrimidine-5-carboxamide]
